{"source": "patent US9610370B2", "about": "“Compositions and methods for tumor imaging and targeting by a class of organic heptamethine cyanine dyes that possess dual nuclear and near-infrared properties” (University of Virginia Patent Foundation, priority 2011, dated 2017)", "key": {"[1]": {"system": "human and mouse cancer cell lines in vitro and tumor xenografts in vivo", "conditions": "cited from earlier work"}, "MCF-7 xenograft tumors": {"system": "MCF-7 xenograft tumors", "assay": "Nuclear imaging (microPET/microSPECT) of mice with MCF-7 xenograft tumors", "assay_type": "in vivo", "conditions": "for visualization of breast tumors in maximal projection images: PC-002 at 48 h post ip, 18F-FDG at 1.5 h post iv, same mouse, FIG. 4", "protocol": "FIG. 1 depicts the SPECT/CT image of PC-001 with a nude mouse model of a human breast cancer MCF-7 xenograft in accordance with various embodiments of the present invention. […] SPECT/CT scan was performed at 20 h post injection.\nFIG. 3 depicts the transverse PET images of PC-002 at 24 and 48 h post ip injection and ^18F-FDG at 1.5 h post iv injection of the same mouse (20 g) harbored with MCF-7 tumor xenografts in accordance with various embodiments of the present invention.\nFIG. 4 depicts the comparison of maximal projection images (MPIs) of PC-002 at 48 h post ip injection and ^18F-FDG at 1.5 h post iv injection of the same mouse (20 g) harbored with MCF-7 tumor xenografts in accordance with various embodiments of the present invention.\nFIG. 8 depicts the transverse PET images of PC-003 at 48 and 72 h post ip injection and with the same mouse (20 g) with MCF-7 tumor xenografts in accordance with various embodiments of the present invention.\nPC-001, PC-002, and PC-003 were evaluated as nuclear imaging probe using mice with MCF-7 xenograft tumors. […] PC-002/PET images were compared with FDG/PET with same mice."}, "MCF-7 xenografts": {"system": "MCF-7 xenografts", "assay": "NIR fluorescence imaging, in vivo and ex vivo, of mice with MCF-7 xenografts", "conditions": "dissected tumor, ex vivo, FIG. 7", "protocol": "FIG. 2 depicts the NIR fluorescence image of PC-002 with a nude mouse (20 g) with MCF-7 tumor xenografts in accordance with various embodiments of the present invention. PC-002 (10 nmol) in saline (200 ul) was injected via tail vein. The live fluorescence images were performed at time points (as indicated) post injection using an IVIS Spectrum device (Ex/Em=745/800 nm).\nFIG. 7 depicts the correlation of PC-002 uptake and ex vivo images in accordance with various embodiments of the present invention. A MCF-7 xenograft tumor was dissected and cut into two halves.\nThe optical imaging property of “cold” counterpart of PC-002, comprising stable copper isotope, was evaluated with mice models with MCF-7, C4-2, and ARCaPM tumors. In mice with MCF-7 xenografts, tumor uptake of PC-002 was discernable at 3 hrs post injection and contrast of tumor and normal tissues reached most profound at 24 hrs post injection (FIG. 2).\nAt 24 hrs post PC-002 injection, a MCF-7 xenograft tumor was dissected and cut into two halves. The viable sections of the tumor in white, right photograph matched with PC-002 fluorescence distribution performed using a Caliper Spectrum device (FIG. 7). The cancer cells in the microscopic image of the H/E stained tumor slice were also overlapped with PC-002 NIR fluorescence of the same tumor slice."}, "[2]": {"assay": "Blood clearance in nude mice", "conditions": "mouse, in vivo", "protocol": "FIG. 6 depicts the blood clearance curve of PC-002 in nude mice in accordance with various embodiments of the present invention. The T1/2 is 256.9±13.2 min. (N=3).\nThe half-life (T1/2) of PC-001, PC-002, and PC-003 is 3, 4.3, and 3 hours, respectively. The long blood circulation times results in good images taken at later hours; for example, 24 to 72 hrs post injection."}, "[3]": {"system": "subcutaneous C4-2 or tibial ARCaPM tumors", "assay": "Ex vivo fluorescent imaging and frozen-section microscopy of harvested tumors and soft tissues", "assay_type": "in vivo, mice", "protocol": "FIG. 11 depicts the harvested bone ARCaPM and subcutaneous C4-2 human prostate tumors embedded with OCT at −25° C. and subjected to frozen sectioning using Cryostat in accordance with various embodiments of the present invention. The frozen sections were fixed and aqueously mounted and imaged using fluorescent microscopy (200× magnification). Note the Dual Nuclear/NIR Agent was actively uptaken into tumor cells.\nThe PC-002 (2 nmole) was intravenously injected into mouse with either subcutaneous C4-2 or tibial ARCaPM tumors and the mice were subjected to fluorescent imaging using the Xenogen Imaging System at the interval of 1 h, 2 h, 4 h, 8 h, 10 h, 12 h, 24 h and 48 h after the dye injection. The fluorescence signal was found accumulating in subcutaneous C4-2 tumor beginning at 24 hr while the signal was found at 2 hr in the in intratibial ARCaPM tumor in mouse skeleton (FIG. 9).\nThe harvested bone (ARCaPM) and subcutaneous (C4-2) tumors were embedded with OCT at −25° C. and subjected to frozen sectioning using Cryostat."}, "[4]": {"system": "xenograft prostate tumors", "assay": "PET imaging of xenograft prostate tumors", "assay_type": "in vivo, mice", "conditions": "FIG. 16", "text": "FIGS. 16A-D illustrate PET imaging of xenograft prostate tumors.\nIn the past, several attractive PET probes, such as ^18F-2-fluoro-2-deoxy-D-glucose (18 F-FDG) or 111In-tagged antibodies, and more recently the development of smaller sized versions of antibodies such as diabodies and minibodies recognizing PSMA and PSCA, have been proposed to detect PCa; but because of their relative large molecular weight as antibodies, potential host immune response to foreign antibodies, and the lack of Pca specificity using 18F-FDG, application of PET/SPECT probe to detect PCa has not been successful. […] As a small molecule, PC-002 has the advantages of being non-immunogenic, easier to purify and to scale-up, and higher stability for storage and shipping. Because of suboptimal NIR dye signal penetration through deep tissues, we chemically synthesized PC-002, a lead PET 64Cu-DOTA-NIR dye30, to facilitate future translation to the clinic. […] Based on this highly promising result, 64Cu-DOTA-based NIR dye for imaging PCa bone and soft tissue metastases can be used concurrently with 99 mTc-MDP to detect reactive bone activity. For example, this strategy can be used in the robust mouse models of PCa metastasis developed by our laboratory. […]"}, "OATP": {"system": "OATP", "conditions": "cited from earlier work"}}, "note": "Where two headings read alike, the source gives them in different places."}
{"smiles": "CCCN1/C(=C/C=C2\\CCCC(/C=C/C3=[N+](CCC)c4ccccc4C3(C)C)=C2Cl)C(C)(C)c2ccccc21.[I-]", "note": "[IR-780]", "values": [{"measurement": "uptake and retention by cancer cell lines and tumor xenografts", "setting": "[1]", "value": "uptake and retention"}]}
{"smiles": "OC[C@H]1OC(O)[C@H]([18F])[C@@H](O)[C@@H]1O", "note": "(stereo partly drawn) [FDG, 18F-2-fluoro-2-deoxy-D-glucose, reference compound]", "values": [{"measurement": "visualization of breast tumors in maximal projection images", "setting": "MCF-7 xenograft tumors", "value": "only barely seen"}]}
{"smiles": "CC1(C)C(=CC=C2CCCC(C=CC3=[N+](CCCCS(=O)(=O)[O-])c4ccccc4C3(C)C)=C2Cl)N(CCCCS(=O)(=O)[O-])c2ccccc21.[Na+]", "note": "[IR783]", "values": [{"measurement": "uptake and retention by cancer cell lines and tumor xenografts", "setting": "[1]", "value": "uptake and retention"}]}
{"smiles": "CC1(C)C(/C=C/C2=C(Cl)C(=C/C=C3/N(CCCCCC(=O)NCCCCC(NC(=O)C[N+]45CC[N+]6(CC(=O)[O-])CC[N+]7(CC(=O)[O-])CC[N+](CC(=O)O)(CC4)[64Cu-2]765)C(=O)O)c4ccccc4C3(C)C)/CCC2)=[N+](CCCCCC(=O)O)c2ccccc21", "note": "(centres unmarked) [PC-002]", "values": [{"measurement": "SUV of MCF-7 tumor relative to hind leg muscles", "setting": "MCF-7 xenograft tumors; FIG. 5", "value": 6, "unit": "times"}, {"measurement": "visualization of breast tumors in maximal projection images", "setting": "MCF-7 xenograft tumors", "value": "clearly visualized"}, {"measurement": "suitability as nuclear imaging probe", "setting": "MCF-7 xenograft tumors; microPET or microSPECT", "value": "suitable candidates for molecular imaging of cancer"}, {"measurement": "tumor contrast and selectivity compared with FDG/PET", "setting": "MCF-7 xenograft tumors; same mice, FIGS. 3 and 4", "value": "higher tumor contrast and selectivity than FDG"}, {"measurement": "association of NIR and PC-002 signals with tumor tissue type", "setting": "MCF-7 xenografts", "value": "associated with viable and not necrotic tissues"}, {"measurement": "half-life", "setting": "[2]; half-life (T1/2), blood clearance", "value": 4.3, "unit": "h"}, {"measurement": "half-life", "setting": "[2]; nude mice, N=3, FIG. 6, read-out: blood clearance T1/2", "value": "4.28 ± 0.22", "unit": "h"}, {"measurement": "uptake in frozen sections, fluorescent microscopy", "setting": "[3]; 200× magnification, FIG. 11", "value": "selectively uptaken in cancer cells"}, {"measurement": "uptake and retention, ex vivo fluorescent imaging", "setting": "[3]; harvested at 24 hrs post injection, FIG. 10", "value": "in tumor only"}, {"measurement": "selectivity for tumor xenografts", "setting": "[4]", "value": "remarkable selectivity"}]}
{"smiles": "O=C1OC(c2ccc(O)c(S(=O)(=O)O)c2)(c2ccc(O)c(S(=O)(=O)O)c2)c2c(Br)c(Br)c(Br)c(Br)c21", "note": "[BSP]", "values": [{"measurement": "effect on NIR dye uptake", "setting": "OATP", "value": "completely blocked"}]}
